Assay results from patent US20010027213A1, “Use of pyrethroid compounds to promote hair growth” (priority 1998, published 2001).
Marks after values point to notes of the source that are not given here.

How the values were obtained:
Type in all cases: in vivo
C3H strain mice [1] = test: Hair growth on clipped back skin, repeat with minoxidil control, Example 5; parameters: Level of hair growth (unaided visual inspection): scale not given here; conditions: for Promoting hair growth: concentrations of 0.1% and 1% in ethanol solutions
Protocol: (§1) The ability of topical administration of pyrethroid compounds to promote hair growth was assessed in female C3H strain mice (10 weeks old; n=5/group). Hair on the back skin of the mice was clipped carefully with an electric clipper. 5 μL/cm^2 of the five compositions tested in the examples above were applied to the mice daily. The level of hair growth at the applied skin areas were evaluated by unaided visual inspection at the indicated time. Cyclosporin A was used as a control.
The experiment described in Example 4 was repeated with a commercially available hair growth-promoting compound (5% minoxidil) as a control.

mice (Sencar strain) = test: Ear thickness after TPA plus pyrethroid application, Example 2
Protocol: Another ear thickness experiment was performed. Ear thickness of mice (Sencar strain, female, 10 weeks of age, n =3/group) was measured with a thickness gage (Mitsutoyo Corp.). After measuring the thickness of both ears at the beginning of the experiment, 20 μL of 12-O-tetradecanoyl-phorbol 13-acetate (TPA) at a concentration of 10^−4 M in acetone was applied on both ears, followed by the application of 10 μL of ethanol on the left ears and 10 μL of the four compositions tested in Example 1 on the right ears (at a concentration of 1% of pyrethroid compound in ethanol solution). Again, ear thickness was monitored over three consecutive days following administration of the compositions.

C3H strain mice [2] = test: Hair growth on clipped back skin, topical daily application, Example 4; parameters: Level of hair growth (unaided visual inspection): scale not given here; conditions: for Promoting hair growth: 1% topical daily; for Level of hair growth (unaided visual inspection): 1%, 5 μL/cm^2 daily, n=5/group
Protocol: as §1, with “time.” for “time. Cyclosporin A was used as a control.”

mice (C3H strain) = test: Ear thickness (primary skin irritancy) after topical application, Example 1; conditions: for Ear thickness compared to ethanol: 1% in ethanol
Protocol: The following example was performed to determine if pyrethroid compounds cause skin irritation (as indicated by ear thickness in mice). Skin irritants may contribute to promoting hair growth.
Prior to the experiment, ear thickness of mice (C3H strain, female, 16 weeks of age, n=3/group) was measured with a thickness gage (Mitsutoyo Corp.). After measuring ear thickness of both ears, 10 μL of ethanol was applied on left ear and 10 μL of a pyrethroid solution (1% pyrethroid compound in ethanol) was applied to the right ear. Ear thickness was measured for three consecutive days after administration.

mice of the C3H strain = test: Skin irritancy on clipped back skin, visual score, Example 3; conditions: three repeated topical administration, 1% in ethanol
Protocol: This experiment was conducted to test the skin irritancy of the compositions of this invention on hair-growing areas of test subjects, i.e., female mice (10 weeks old) of the C3H strain (n=5 group). After clipping the hair of the back skin of mice with an electric clipper, 5 μL/cm^2 of each four composition tested in Examples 1 and 2 (at a concentration of 1% in an ethanol solution) were applied. The application was administered once a day, for 3 consecutive days. Skin irritation was evaluated by unaided visual inspection at the end of the third day.

[3] = day 0 (before application), Sencar female mice, n=3
[4] = day 1, 20 μL TPA 10^−4 M in acetone then 10 μL of 1% in ethanol, Sencar mice
[5] = day 2, 20 μL TPA 10^−4 M in acetone then 10 μL of 1% in ethanol, Sencar mice
[6] = day 3, 20 μL TPA 10^−4 M in acetone then 10 μL of 1% in ethanol, Sencar mice
[7] = day 0 (before application), C3H female mice, n=3
[8] = day 1, 10 μL of 1% in ethanol on right ear, C3H mice
[9] = day 2, 10 μL of 1% in ethanol on right ear, C3H mice
[10] = day 3, 10 μL of 1% in ethanol on right ear, C3H mice

| SMILES | Level of hair growth (unaided visual inspection) (C3H strain mice [1]; 0.01%, Week 1) | Level of hair growth (unaided visual inspection) (C3H strain mice [1]; 0.01%, Week 2) | Level of hair growth (unaided visual inspection) (C3H strain mice [1]; 0.01%, Week 3) | Level of hair growth (unaided visual inspection) (C3H strain mice [1]; 0.01%, Week 4) | Level of hair growth (unaided visual inspection) (C3H strain mice [1]; 0.01%, Week 5) | Level of hair growth (unaided visual inspection) (C3H strain mice [1]; 0.01%, Week 6) | Level of hair growth (unaided visual inspection) (C3H strain mice [1]; 0.1%, Week 1) | Level of hair growth (unaided visual inspection) (C3H strain mice [1]; 0.1%, Week 2) | Level of hair growth (unaided visual inspection) (C3H strain mice [1]; 0.1%, Week 3) | Level of hair growth (unaided visual inspection) (C3H strain mice [1]; 0.1%, Week 4) | Level of hair growth (unaided visual inspection) (C3H strain mice [1]; 0.1%, Week 5) | Level of hair growth (unaided visual inspection) (C3H strain mice [1]; 0.1%, Week 6) | Level of hair growth (unaided visual inspection) (C3H strain mice [1]; 1%, Week 1) | Level of hair growth (unaided visual inspection) (C3H strain mice [1]; 1%, Week 2) | Level of hair growth (unaided visual inspection) (C3H strain mice [1]; 1%, Week 3) | Level of hair growth (unaided visual inspection) (C3H strain mice [1]; 1%, Week 4) | Level of hair growth (unaided visual inspection) (C3H strain mice [1]; 1%, Week 5) | Level of hair growth (unaided visual inspection) (C3H strain mice [1]; 1%, Week 6) | Right ear thickness (mice (Sencar strain); [3]) [×0.01 mm] | Right ear thickness (mice (Sencar strain); [4]) [×0.01 mm] | further results |
| --- | --- | --- | --- | --- | --- | --- | --- | --- | --- | --- | --- | --- | --- | --- | --- | --- | --- | --- | --- | --- | --- |
| CC1(C)C(C=C(Cl)Cl)C1C(=O)OC(C#N)c1cccc(Oc2ccccc2)c1 (stereo not drawn) [Cypermethrin, cypermethrin] | 0 | 0 | 0 | 0 | 0 | 0 | 0 | 0 | 5 | 5 | 5 | 5 | 0 | 0 | 5 | 5 | 5 | 5 | 24.0 | 26.7 | Promoting hair growth (C3H strain mice [1]): effective in promoting hair growth; Right ear thickness (mice (Sencar strain); [5]): 28.3 ×0.01 mm; Right ear thickness (mice (Sencar strain); [6]): 27.3 ×0.01 mm; Promoting hair growth (C3H strain mice [2]): effective in promoting hair growth; Level of hair growth (unaided visual inspection) (C3H strain mice [2]; Day 7): 0; Level of hair growth (unaided visual inspection) (C3H strain mice [2]; Day 14): 0; Level of hair growth (unaided visual inspection) (C3H strain mice [2]; Day 19): 2; Level of hair growth (unaided visual inspection) (C3H strain mice [2]; Day 29): 4; Level of hair growth (unaided visual inspection) (C3H strain mice [2]; Day 36): 5; Ear thickness compared to ethanol (mice (C3H strain); C3H mice): did not increase ear thickness; Right ear thickness (mice (C3H strain); [7]): 27.7 ×0.01 mm; Right ear thickness (mice (C3H strain); [8]): 27.7 ×0.01 mm; Right ear thickness (mice (C3H strain); [9]): 27.3 ×0.01 mm; Right ear thickness (mice (C3H strain); [10]): 28.0 ×0.01 mm; Skin irritation (redness) (mice of the C3H strain): failed to cause skin irritation |
| CC1(C)[C@H](C(=O)O[C@H](C#N)c2cccc(Oc3ccccc3)c2)[C@@H]1C=C(Br)Br [Deltamethrin, deltamethrin] | 0 | 0 | 1 | 1 | 1 | 3 | 0 | 0 | 5 | 5 | 5 | 5 | 0 | 2 | 5 | 5 | 5 | 5 | 26.0 | 27.3 | Promoting hair growth (C3H strain mice [1]): effective in promoting hair growth; Right ear thickness (mice (Sencar strain); [5]): 29.0 ×0.01 mm; Right ear thickness (mice (Sencar strain); [6]): 28.0 ×0.01 mm; Promoting hair growth (C3H strain mice [2]): effective in promoting hair growth; Level of hair growth (unaided visual inspection) (C3H strain mice [2]; Day 7): 0; Level of hair growth (unaided visual inspection) (C3H strain mice [2]; Day 14): 0; Level of hair growth (unaided visual inspection) (C3H strain mice [2]; Day 19): 1; Level of hair growth (unaided visual inspection) (C3H strain mice [2]; Day 29): 5; Level of hair growth (unaided visual inspection) (C3H strain mice [2]; Day 36): 5; Ear thickness compared to ethanol (mice (C3H strain); C3H mice): did not increase ear thickness; Right ear thickness (mice (C3H strain); [7]): 27.0 ×0.01 mm; Right ear thickness (mice (C3H strain); [8]): 27.3 ×0.01 mm; Right ear thickness (mice (C3H strain); [9]): 27.3 ×0.01 mm; Right ear thickness (mice (C3H strain); [10]): 28.0 ×0.01 mm; Skin irritation (redness) (mice of the C3H strain): failed to cause skin irritation |
| CC(C)C(C(=O)OC(C#N)c1cccc(Oc2ccccc2)c1)c1ccc(Cl)cc1 (stereo not drawn) [Fenvalerate, fenvalerate] | 0 | 0 | 0 | 0 | 0 | 0 | 0 | 0 | 5 | 5 | 5 | 5 | 0 | 0* | 3* | 5 | 5 | 5 | 24.0 | 26.3 | Promoting hair growth (C3H strain mice [1]): effective in promoting hair growth; Right ear thickness (mice (Sencar strain); [5]): 26.7 ×0.01 mm; Right ear thickness (mice (Sencar strain); [6]): 26.7 ×0.01 mm; Promoting hair growth (C3H strain mice [2]): effective in promoting hair growth; Level of hair growth (unaided visual inspection) (C3H strain mice [2]; Day 7): 0; Level of hair growth (unaided visual inspection) (C3H strain mice [2]; Day 14): 0; Level of hair growth (unaided visual inspection) (C3H strain mice [2]; Day 19): 1; Level of hair growth (unaided visual inspection) (C3H strain mice [2]; Day 29): 4; Level of hair growth (unaided visual inspection) (C3H strain mice [2]; Day 36): 4; Ear thickness compared to ethanol (mice (C3H strain); C3H mice): did not increase ear thickness; Right ear thickness (mice (C3H strain); [7]): 27.3 ×0.01 mm; Right ear thickness (mice (C3H strain); [8]): 28.0 ×0.01 mm; Right ear thickness (mice (C3H strain); [9]): 28.0 ×0.01 mm; Right ear thickness (mice (C3H strain); [10]): 27.0 ×0.01 mm; Skin irritation (redness) (mice of the C3H strain): failed to cause skin irritation |
| Nc1cc(N2CCCCC2)nc(N)[n+]1[O-] [Minoxidil, minoxidil] | – | – | – | – | – | – | – | – | – | – | – | – | – | – | – | – | – | – | – | – | Level of hair growth (unaided visual inspection) (C3H strain mice [1]; 5%, Week 1): 0; Level of hair growth (unaided visual inspection) (C3H strain mice [1]; 5%, Week 2): 0; Level of hair growth (unaided visual inspection) (C3H strain mice [1]; 5%, Week 3): 2; Level of hair growth (unaided visual inspection) (C3H strain mice [1]; 5%, Week 4): 3; Level of hair growth (unaided visual inspection) (C3H strain mice [1]; 5%, Week 5): 4; Level of hair growth (unaided visual inspection) (C3H strain mice [1]; 5%, Week 6): 4 |
| CC1(C)C(C=C(Cl)Cl)C1C(=O)OCc1cccc(Oc2ccccc2)c1 (stereo not drawn) [Permethrin, permethrin] | 0 | 0 | 0 | 0 | 0 | 0 | 0 | 0 | 0 | 0 | 0 | 0 | 0 | 0 | 0 | 0 | 0 | 1 | 23.3 | 27.3 | Right ear thickness (mice (Sencar strain); [5]): 27.0 ×0.01 mm; Right ear thickness (mice (Sencar strain); [6]): 27.7 ×0.01 mm; Level of hair growth (unaided visual inspection) (C3H strain mice [2]; Day 7): 0; Level of hair growth (unaided visual inspection) (C3H strain mice [2]; Day 14): 0; Level of hair growth (unaided visual inspection) (C3H strain mice [2]; Day 19): 0; Level of hair growth (unaided visual inspection) (C3H strain mice [2]; Day 29): 0; Level of hair growth (unaided visual inspection) (C3H strain mice [2]; Day 36): 0; Ear thickness compared to ethanol (mice (C3H strain); C3H mice): did not increase ear thickness; Right ear thickness (mice (C3H strain); [7]): 27.3 ×0.01 mm; Right ear thickness (mice (C3H strain); [8]): 27.7 ×0.01 mm; Right ear thickness (mice (C3H strain); [9]): 27.7 ×0.01 mm; Right ear thickness (mice (C3H strain); [10]): 28.3 ×0.01 mm; Skin irritation (redness) (mice of the C3H strain): failed to cause skin irritation |
